Reference: patent US8691757B2 (Bristol-Myers Squibb Company, priority 2011, dated 2014)

Legend:
[1] = test system: HCV genotype 1a (H77 strain) replicon in HUH-7 cells; experiment: HCV replicon luciferase reporter assay, genotype 1a; format: cell-based; details: Hepatitis C virus, 72 h, HCV genotype 1a replicon, 3 days incubation, Renilla luciferase
Text: (§1) An HCV replicon whole cell system was established as described by Lohmann V, Korner F, Koch J, Herian U, Theilmann L, Bartenschlager R., Science 285(5424):110-3 (1999) and modified to introduce a luciferase reporter, as first described by Krieger et al (Krieger N, Lohmann V, and Bartenschlager R, J. Virol. 75(10):4614-4624 (2001)). CDNA encoding a humanized form of the Renilla luciferase gene and a linker sequence fused directly to the 3′-end of the luciferase gene were introduced into the replicon construct using an Asc1 restriction site located in core, directly upstream of the neomycin marker gene. The adaptive mutation at position 1179 (serine to isoleucine) was also introduced (Blight K J, Kolykhalov, A A, Rice, C M, Science 290(5498):1972-1974). A stable cell line constitutively expressing this HCV replicon construct was generated by first linearizing plasmid DNAs with ScaI. RNA transcripts were synthesized in vitro using the T7 MegaScript transcription kit (Ambion, Austin, Tex.) according to manufacturer's directions. In vitro transcripts of the cDNA were transfected into the human hepatoma cell line, HUH-7. […] Resulting cell lines were characterized for positive and negative strand RNA production and protein production over time.
A stable HCV replicon luciferase reporter cell line representing the genotype 1a H77 strain (Yanagi M, Purcell R H, Emerson S U, et al. Transcripts from a single full-length cDNA clone of hepatitis C virus are infectious when directly transfected into the liver of a chimpanzee. Proc Natl Acad Sci USA 1997; 94(16):8738-8743) was generated as described previously for the genotype 1b (Con1) replicon luciferase cell line. The replicon construct was modified by introducing mutations were introduced into the genes encoding the NS3 helicase domain (proline replaced by leucine at position 1496) and NS5A (serine to isoleucine at position 2204) to improve replication in cell culture.
(§2) HCV replicon luciferase assays were developed to monitor the inhibitory effects of compounds described in the disclosure on HCV genotypes 1a and 1b viral replication. HUH-7 cells, constitutively expressing the HCV replicon, were grown in Dulbecco's Modified Eagle Media (DMEM) (Gibco-BRL) containing 10% Fetal calf serum (FCS) (Sigma) and 1 mg/mL G418 (Gibco-BRL). Compounds were serially diluted 3 folds in DMSO for a twenty-point titration and subsequently transferred to sterile 384-well tissue-culture treated plates (Corning cat #3571). The plates were then seeded with 50 μL of cells at a density of 3.0×10^3 cells/well in DMEM containing 4% FCS (final DMSO concentration at 0.5%). After 3 days incubation at 37° C., cells were analyzed for Renilla Luciferase activity using the EnduRen as substrate (Promega cat #E6485). The EnduRen substrate was diluted in DMEM and then added to the plates to a final concentration of 7.5 μM. The plates were incubated for 2 hrs at 37° C. and then read immediately for 30 seconds with Viewlux Imager (PerkinElmer) using a luminescence program. To assess cytotoxicity of compounds, CC50 values were generated by multiplexing the EnduRen-containing plates with Cell Titer-Blue (Promega, cat #G8082). Cell-Titer Blue (3 μL) was added to each well and incubated for 8 hrs at 37° C. The fluorescence signal from each well was read, with an excitation wavelength at 525/10 nm and an emission wavelength of 598/10 nm, using the Viewlux Imager.
(§3) The EC50 values for compounds were calculated by using a four-parameter logistic equation: y=A+((B−A)/(1+((C/x)^D))), where A and B denotes minimal and maximal % inhibition, respectively, C is the EC50, D is the hill slope and x represents compound concentration.

[2] = test system: HCV genotype 1b (Con1) replicon in HUH-7 cells; experiment: HCV replicon luciferase reporter assay, genotype 1b; format: cell-based; details: Hepatitis C virus, 72 h, HCV genotype 1b replicon, 3 days incubation, Renilla luciferase
Text: as §1, with “time. […]” for “time.”
as §2, §3

SMILES | EC50 ([1]; range classes) | EC50 ([2]; range classes) | EC50 ([1]; numeric values) | EC50 ([2]; numeric values)
COc1cnc(O[C@@H]2C[C@H]3C(=O)N[C@]4(C(=O)NS(=O)(=O)C5CC5)C[C@H]4/C=C\[C@H](C)CCC[C@@H](C)[C@H](NC(=O)OC(C)(C)C(F)(F)F)C(=O)N3C2)c2ccccc12 [Compound 3, 1,1,1-trifluoro-2-methylpropan-2-yl (2R,6S,7R,11R,13aS,14aR,16aS,Z)-14a-(cyclopropylsulfonylcarbamoyl)-2-(4-methoxyisoquinolin-1-yloxy)-7,11-dimethyl-5,16-dioxo-1,2,3,5,6,7,8,9,10,11,13a,14,14a,15,16,16a-hexadecahydrocyclopropa[e]pyrrolo[1,2-a][1,4]diazacyclopentadecin-6-ylcarbamate] | 0.2 to 1 nM | 0.2 to 1 nM |  | 
COc1cnc(O[C@@H]2C[C@H]3C(=O)N[C@]4(C(=O)NS(=O)(=O)C5CC5)C[C@H]4/C=C\[C@@H](C)CCC[C@@H](C)[C@H](NC(=O)OC(C)(C)C(F)(F)F)C(=O)N3C2)c2ccccc12 [Compound 4, 1,1,1-trifluoro-2-methylpropan-2-yl (2R,6S,7R,11S,13aS,14aR,16aS,Z)-14a-(cyclopropylsulfonylcarbamoyl)-2-(4-methoxyisoquinolin-1-yloxy)-7,11-dimethyl-5,16-dioxo-1,2,3,5,6,7,8,9,10,11,13a,14,14a,15,16,16a-hexadecahydrocyclopropa[e]pyrrolo[1,2-a][1,4]diazacyclopentadecin-6-ylcarbamate] |  |  | 4.9 nM | 2.8 nM
COc1cnc(O[C@@H]2C[C@H]3C(=O)N[C@]4(C(=O)NS(=O)(=O)C5CC5)C[C@H]4/C=C\[C@H](C)CCC[C@@H](C)[C@H](NC(=O)OC(C)(C)C)C(=O)N3C2)c2cccc(Cl)c12 [Compound 5, tert-butyl (2R,6S,7R,11R,13aS,14aR,16aS,Z)-2-(5-chloro-4-methoxyisoquinolin-1-yloxy)-14a-(cyclopropylsulfonylcarbamoyl)-7,11-dimethyl-5,16-dioxo-1,2,3,5,6,7,8,9,10,11,13a,14,14a,15,16,16a-hexadecahydrocyclopropa[e]pyrrolo[1,2-a][1,4]diazacyclopentadecin-6-ylcarbamate] |  |  | 0.41 nM | 1.2 nM
COc1cnc(O[C@@H]2C[C@H]3C(=O)N[C@]4(C(=O)NS(=O)(=O)C5CC5)C[C@H]4/C=C\[C@@H](C)CCC[C@@H](C)[C@H](NC(=O)OC(C)(C)C)C(=O)N3C2)c2cccc(Cl)c12 [Compound 6, tert-butyl (2R,6S,7R,11S,13aS,14aR,16aS,Z)-2-(5-chloro-4-methoxyisoquinolin-1-yloxy)-14a-(cyclopropylsulfonylcarbamoyl)-7,11-dimethyl-5,16-dioxo-1,2,3,5,6,7,8,9,10,11,13a,14,14a,15,16,16a-hexadecahydrocyclopropa[e]pyrrolo[1,2-a][1,4]diazacyclopentadecin-6-ylcarbamate] | 1.01 to 2 nM | 2.01 to 5 nM |  | 
COc1cnc(O[C@@H]2C[C@H]3C(=O)N[C@]4(C(=O)NS(=O)(=O)C5CC5)C[C@H]4/C=C\[C@H](C)CCC[C@@H](C)[C@H](NC(=O)OC(C)(C)C(F)(F)F)C(=O)N3C2)c2cccc(Cl)c12 [Compound 7, 1,1,1-trifluoro-2-methylpropan-2-yl (2R,6S,7R,11R,13aS,14aR,16aS,Z)-2-(5-chloro-4-methoxyisoquinolin-1-yloxy)-14a-(cyclopropylsulfonylcarbamoyl)-7,11-dimethyl-5,16-dioxo-1,2,3,5,6,7,8,9,10,11,13a,14,14a,15,16,16a-hexadecahydrocyclopropa[e]pyrrolo[1,2-a][1,4]diazacyclopentadecin-6-ylcarbamate] | 1.01 to 2 nM | 0.2 to 1 nM |  | 
COc1cnc(O[C@@H]2C[C@H]3C(=O)N[C@]4(C(=O)NS(=O)(=O)C5CC5)C[C@H]4/C=C\[C@@H](C)CCC[C@@H](C)[C@H](NC(=O)OC(C)(C)C(F)(F)F)C(=O)N3C2)c2cccc(Cl)c12 [Compound 8, 1,1,1-trifluoro-2-methylpropan-2-yl (2R,6S,7R,11S,13aS,14aR,16aS,Z)-2-(5-chloro-4-methoxyisoquinolin-1-yloxy)-14a-(cyclopropylsulfonylcarbamoyl)-7,11-dimethyl-5,16-dioxo-1,2,3,5,6,7,8,9,10,11,13a,14,14a,15,16,16a-hexadecahydrocyclopropa[e]pyrrolo[1,2-a][1,4]diazacyclopentadecin-6-ylcarbamate] | 2.01 to 5 nM | 1.01 to 2 nM |  | 
COc1ccc2c(O[C@@H]3C[C@H]4C(=O)N[C@]5(C(=O)NS(=O)(=O)C6CC6)C[C@H]5/C=C\[C@H](C)CCC[C@@H](C)[C@H](NC(=O)OC(C)(C)C(F)(F)F)C(=O)N4C3)nccc2c1 [Compound 9, 1,1,1-trifluoro-2-methylpropan-2-yl (2R,6S,7R,11R,13aS,14aR,16aS,Z)-14a-(cyclopropylsulfonylcarbamoyl)-2-(6-methoxyisoquinolin-1-yloxy)-7,11-dimethyl-5,16-dioxo-1,2,3,5,6,7,8,9,10,11,13a,14,14a,15,16,16a-hexadecahydrocyclopropa[e]pyrrolo[1,2-a][1,4]diazacyclopentadecin-6-ylcarbamate] |  |  | 1 nM | 0.36 nM
COc1ccc2c(O[C@@H]3C[C@H]4C(=O)N[C@]5(C(=O)NS(=O)(=O)C6(CF)CC6)C[C@H]5/C=C\[C@H](C)CCC[C@@H](C)[C@H](NC(=O)OC(C)(C)C)C(=O)N4C3)ncc(OC)c2c1 [Compound 11, tert-butyl (2R,6S,7R,11R,13aS,14aR,16aS,Z)-2-(4,6-dimethoxyisoquinolin-1-yloxy)-14a-(1-(fluoromethyl)cyclopropylsulfonylcarbamoyl)-7,11-dimethyl-5,16-dioxo-1,2,3,5,6,7,8,9,10,11,13a,14,14a,15,16,16a-hexadecahydrocyclopropa[e]pyrrolo[1,2-a][1,4]diazacyclopentadecin-6-ylcarbamate] | 2.01 to 5 nM | 0.2 to 1 nM |  | 
COc1ccc2c(O[C@@H]3C[C@H]4C(=O)N[C@]5(C(=O)NS(=O)(=O)C6(CF)CC6)C[C@H]5/C=C\[C@H](C)CCC[C@@H](C)[C@H](NC(=O)OC(C)(C)C(F)(F)F)C(=O)N4C3)ncc(OC)c2c1 [Compound 12] | 2.01 to 5 nM | 1.01 to 2 nM |  | 
COc1ccc2c(O[C@@H]3C[C@H]4C(=O)N[C@]5(C(=O)NS(=O)(=O)C6(CF)CC6)C[C@H]5/C=C\[C@@H](C)CCC[C@@H](C)[C@H](NC(=O)OC(C)(C)C(F)(F)F)C(=O)N4C3)ncc(OC)c2c1 [Compound 13] | 5.01 to 68 nM | 2.01 to 5 nM |  | 
